Experimental data published in patent US20240352055A1, “PROCESS FOR THE MANUFACTURE OF (2S,3S,4S,5R,6S)-3,4,5-TRIHYDROXY-6-(((4AR,10AR)-7-HYDROXY-1-PROPYL-1,2,3,4,4A,5,10,10A-OCTAHYDROBENZO[G]QUINOLIN-6-YL)OXY)TETRAHYDRO-2H-PYRAN-2-CARBOXYLIC ACID” (H. LUNDBECK A/S, priority 2019, published 2024).
Like-named read-outs stand apart in the source and are kept apart here.

What was measured:
[1] = test system: locomotor activity; experiment: Rat locomotor activity (hyperactivity) assay, open field; format: in vivo, male CD rats; details: for Onset of increased locomotor activity post-administration / End of locomotor effect, time post administration: (Id) 10 to 300 μg/kg p.o.; for End of locomotor effect, time post administration: recording to the 415-minute time point
Protocol: In total, 206 male CD rats (Charles River, Germany) weighing 200-250 grams (165-190 grams upon arrival) were used in the study. Animals were housed at a standard temperature (22±1° C.) and in a light-controlled environment (lights on from 7 am to […]) with ad libitum access to food and water. The experiment described below was performed in accordance with the standard operating procedures of Charles River Discovery Research Services Finland Ltd. and in accordance with the national Animal Experiment Board of Finland (Eläinkoelautakunta, ELLA) authority on animal testing.
The test device is a square Plexiglass-arena (measuring 40×40×40 cm), in which the movement paths of the rats are recorded by an activity monitor (Med. Associates Inc.). Before the test period is initiated, rats are habituated to their test cage for 60 minutes. Upon completion of habituation, animals were treated with either compound or vehicle and placed back into the open field apparatus. The main test parameter measured is ambulatory distance (recorded in 5 minute segments). Overall time of measurement after receiving initial treatment was 360 minutes. Total follow up period in the study was 420 minutes, including 60 minutes of habituation.
Apomorphine and pramipexole were also concomitantly tested in this assay as comparators (i.e. known standard-of-care (SoC) in the Parkinson's Disease field), and plasma concentration was analyzed for apomorphine.

[2] = target: human 5-HT2B receptor (Homo sapiens (Human), UniProt P41595); experiment: 5-HT2B agonist activity assay (IP1 production, HTRF); format: cell-based; details: for 5-HT2B agonist effect at single concentration: percent of control response to 1 μM 5-HT; for EC50: CHO cells expressing human 5-HT2B, IP1 production
Protocol: Evaluation of the agonist activity of compounds (I), (Ia)(Ib), (Ic), and (Id) at the human 5-HT2B receptor was performed by Eurofins/Cerep (France) measuring the compound effects on inositol monophosphate (IP1) production using the HTRF detection method. Briefly, the human 5-HT2B receptor was expressed in transfected CHO cells. The cells were suspended in a buffer containing 10 mM Hepes/NaOH (pH 7.4), 4.2 mM KCl, 146 mM NaCl, 1 mM CaCl2, 0.5 mM MgCl2, 5.5 mM glucose and 50 mM LiCl, then distributed in microplates at a density of 4100 cells/well and incubated for 30 minutes at 37° C. in the presence of buffer (basal control), test compound or reference agonist. For stimulated control measurement, separate assay wells contained 1 μM 5-HT. Following incubation, the cells were lysed and the fluorescence acceptor (fluorophen D2-labeled IP1) and fluorescence donor (anti-IP1 antibody labeled with europium cryptate) were added. After 60 minutes at room temperature, the fluorescence transfer was measured at lambda (Ex) 337 nm and lambda(Em) 620 and 665 nm using a microplate reader (Rubystar, BMG). The IP1 concentration was determined by dividing the signal measured at 665 nm by that measured at 620 nm (ratio). The results were expressed as a percent of the control response to 1 μM 5-HT. The standard reference agonist was 5-HT, which was tested in each experiment at several concentrations to generate a concentration-response curve from which its EC50 value is calculated as described above for dopamine functional assays.

[3] = PK experiments in rats: plasma compound (I) after oral dosing of prodrugs; format: in vivo, Han Wistar rats; details: Wistar rats, oral dosing of the prodrug
Protocol: Plasma was placed on water-ice following collection. Final storage at approximately −70° C.
Instrumentation Used for Analysis of Compound (I) from Dosing Compound (Ia):
Mobile phase B: Acetonitrile. […] Flow rate 0.5 mL/min.
The rats had unrestricted access to the diet.
Instrumentation Used for Analysis of Compound (I) from Dosing of Compound (Ib):
Mobile phase B: Acetonitrile+0.2% formic acid. […] Flow rate 0.3 mL/min.
Dosing and blood sampling for compound (Ic): Han Wistar rats were supplied by Envigo, UK. […] The rats received a standard laboratory diet Teklad 2014C. The rats had unrestricted access to the diet. […] Rats were given 494 μg/kg (Ic).

[4] = target: human D1 receptor (Homo sapiens (Human), UniProt P21728); experiment: Dopamine D1 receptor agonism, HTRF cAMP assay; format: cell-based
Protocol: Dopamine D1 receptor agonism was measured using a HTRF cAMP from CisBio using the protocol developed by HD Biosciences (China). Briefly, the assay is a homogeneous time resolved-fluorescence resonance energy transfer (HTRF) assay that measures production of cAMP by cells in a competitive immunoassay between native cAMP produced by cells and cAMP-labeled with XL-665. A cryptate-labeled anti-cAMP antibody visualizes the tracer. The assay was performed in accordance with instructions from manufacturer.
Test compounds were added to wells of microplates (384 format). HEK-293 cells expressing the human D1 receptor were plated at 1000 cells/well and incubated 30 minutes at room temperature. cAMP-d2 tracer was added to wells and followed by addition of Anti-cAMP antibody-cryptate preparation and incubated for 1 hour at room temperature in dark. HTRF cAMP was measured by excitation of the donor with 337 nm laser (the “TRF light unit”) and subsequent (delay time 100 microseconds) measurement of cryptate and d2 emission at 615 nm and 665 nm over a time window of 200 microseconds with a 2000 microseconds time window between repeats/100 flashes). HTRF measurements were performed on an Envision microplate reader (PerkinElmer). The HTRF signal was calculated as the emission-ratio at 665 nm over 615 nm. The HTRF ratio readout for test compounds was normalized to […] and 100% stimulation using control wells with DMSO-solvent or 30 μM dopamine. Test compound potency (EC50) was estimated by nonlinear regression using the sigmoidal dose-response (variable slope) using Xlfit 4 (IDBS, Guildford, Surrey, UK, model 205).
y=(A+((B−A)/(1+((C/x)^D))))
where y is the normalized HTRF ratio measurement for a given concentration of test compound, x is the concentration of test compound, A is the estimated efficacy at infinite compound dilution, and B is the maximal efficacy. C is the EC50 value and D is the Hill slope coefficient. EC50 estimates were obtained from an independent experiment and the logarithmic average was calculated.

[5] = target: human D2 receptor (Homo sapiens (Human), UniProt P14416); experiment: Dopamine D2 receptor agonism, calcium mobilization assay; format: cell-based; details: HEK293/G15 cells expressing human D2 receptor; calcium flux
Protocol: Dopamine D2 receptor agonism was measured using a calcium mobilization assay protocol developed by HD Biosciences (China). Briefly, HEK293/G15 cells expressing human D2 receptor were plated at a density of 15000 cells/well in clear-bottomed, Matrigel-coated 384-well plates and grown for 24 hours at 37° C. in the presence of 5% CO2. The cells were incubated with calcium-sensitive fluorescent dye, Fluo8, for 60-90 minutes at 37° C. in the dark. Test compounds were prepared at 3-fold concentrated solution in 1×HBSS buffer with Ca^2. and Mg^2+. Calcium Flux signal was immediately recorded after compounds were added from compound plate to cell plate at FLIPR (Molecular Devices). The fluorescence data were normalized to yield responses for no stimulation (buffer) and full stimulation (1 μM of dopamine) of 0% and 100%. stimulation, respectively. Test compound potency (EC50) was estimated by nonlinear regression using the sigmoidal dose-response (variable slope) using Xlfit 4 (IDBS, Guildford, Surrey, UK, model 205).
where y is the normalized ratio measurement for a given concentration of test compound, x is the concentration of test compound, A is the estimated efficacy at infinite compound dilution, and B is the maximal efficacy. C is the EC50 value and D is the Hill slope coefficient. EC50 estimates were obtained from independent experiment and the logarithmic average was calculated.

[6] = Liu et al., Bioorganic Med. Chem. (2008); cited from earlier work
[7] = in man after oral dosing; cited from earlier work
[8] = Conversion of compound (Id) to compound (I) in rat hepatocytes; format: in vitro ADME; details: 1 μg/mL, 37° C., up to 60 minutes
Protocol: (§1) The cell concentration at incubation was 1×10^6 viable cells/mL. The incubations were performed in glass tubes at 37° C. with a total incubation volume of 3.5 mL and with duplicate incubations for each test item. The 3.5 mL of hepatocyte suspension was equilibrated for 10 minutes in a water bath set to 37° C. where after the incubations were initiated by adding 3.5 μL of a stock solution of the test item in DMSO (Dimethyl sulfoxide) and gently inverting the tubes. The final solvent concentration in the incubations was 0.1% DMSO. Samples of 600 μL were withdrawn from the incubations at the pre-determined time points of 0.25, 5, 15, 30 and 60 minutes after ensuring homogeneity of hepatocyte suspensions. The withdrawn volume was added to 1 mL Nunc cryotubes on wet ice containing 60 μL of ice-cold ascorbic acid (100 mg/mL) and 30 μL of ice cold 100 mM saccharic acid 1.4-lactone in 0.5 M citric acid. The tubes were mixed and 35 μL of a solution of ice cold 20% formic acid was added. The tubes were mixed thoroughly and stored at −80° C. awaiting analysis.

[9] = Conversion of compound (Id) to compound (I) in human hepatocytes; format: in vitro ADME; details: 1 μg/mL, 37° C., up to 60 minutes
Protocol: as §1

[10] = Conversion of compound (Id) to compound (I) in fresh rat blood; format: in vitro ADME; details: 1 μg/mL, 37° C., up to 60 minutes
Protocol: (§2) Conversion of (Id) in human blood (average of 3 donors) and rat blood (average of […]) to (1) was shown in fresh blood at 37° C. spiked with 1 μg/mL of (Id). (1) was measured at 0, 5, 15, 30 and 60 minutes in isolated plasma. Analysis method and Instrumentation as described in Examples 9 and 10 below in the section “Instrumentation used for analysis of compound (I) from dosing of compounds (Ic) and (d).”

[11] = Conversion of compound (Id) to compound (I) in fresh human blood; format: in vitro ADME; details: 1 μg/mL, 37° C., up to 60 minutes
Protocol: as §2

[12] = In vivo conversion of compound (Id) to compound (I) after oral dosing in minipigs
[13] = apomorphine 3 mg/kg s.c., pramipexole 0.3 mg/kg s.c.
[14] = HEK-293 cells expressing human D1 receptor, cAMP HTRF, read-out: D1 EC50

Chain of human 5-HT2B receptor (P41595 whole entry): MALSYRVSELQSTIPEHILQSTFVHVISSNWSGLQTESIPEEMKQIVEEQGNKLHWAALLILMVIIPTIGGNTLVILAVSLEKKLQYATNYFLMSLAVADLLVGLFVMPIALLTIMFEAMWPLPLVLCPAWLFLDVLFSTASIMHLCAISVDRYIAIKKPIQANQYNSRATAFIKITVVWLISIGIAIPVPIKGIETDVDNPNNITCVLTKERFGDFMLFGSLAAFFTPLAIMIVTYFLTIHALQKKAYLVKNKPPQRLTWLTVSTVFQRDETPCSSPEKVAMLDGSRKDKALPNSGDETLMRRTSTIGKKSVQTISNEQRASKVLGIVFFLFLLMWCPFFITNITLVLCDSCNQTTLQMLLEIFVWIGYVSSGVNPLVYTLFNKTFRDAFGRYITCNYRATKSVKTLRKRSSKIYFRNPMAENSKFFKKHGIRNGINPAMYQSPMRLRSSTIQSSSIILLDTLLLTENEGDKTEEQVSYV
Chain of human D1 receptor (P21728 whole entry): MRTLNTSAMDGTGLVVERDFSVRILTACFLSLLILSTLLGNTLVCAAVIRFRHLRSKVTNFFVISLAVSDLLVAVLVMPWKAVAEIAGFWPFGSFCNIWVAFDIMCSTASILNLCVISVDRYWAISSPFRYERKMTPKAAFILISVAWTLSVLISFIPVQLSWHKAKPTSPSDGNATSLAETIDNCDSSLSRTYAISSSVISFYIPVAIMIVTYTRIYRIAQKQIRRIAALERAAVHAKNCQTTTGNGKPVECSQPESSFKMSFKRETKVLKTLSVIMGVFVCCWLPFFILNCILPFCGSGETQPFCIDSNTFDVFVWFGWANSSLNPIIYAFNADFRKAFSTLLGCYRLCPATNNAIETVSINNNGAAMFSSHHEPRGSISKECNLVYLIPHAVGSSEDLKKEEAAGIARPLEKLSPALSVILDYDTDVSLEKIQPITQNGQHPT
Chain of human D2 receptor (P14416 whole entry): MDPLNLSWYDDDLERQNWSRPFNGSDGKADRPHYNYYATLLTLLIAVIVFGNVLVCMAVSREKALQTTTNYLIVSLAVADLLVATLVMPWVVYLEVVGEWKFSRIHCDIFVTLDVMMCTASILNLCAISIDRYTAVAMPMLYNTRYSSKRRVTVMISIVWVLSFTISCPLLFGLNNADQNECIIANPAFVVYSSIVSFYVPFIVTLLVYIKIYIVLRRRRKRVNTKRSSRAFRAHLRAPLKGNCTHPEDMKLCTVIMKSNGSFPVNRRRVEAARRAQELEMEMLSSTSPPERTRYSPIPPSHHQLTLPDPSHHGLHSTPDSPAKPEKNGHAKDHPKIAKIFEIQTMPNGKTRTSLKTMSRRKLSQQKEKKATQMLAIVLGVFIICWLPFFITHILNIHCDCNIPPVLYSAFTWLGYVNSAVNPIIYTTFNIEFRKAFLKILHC

Structure (SMILES) | Onset of increased locomotor activity post-administration [1, 13] | Plasma profile of compound (I) after oral dosing (in words) [3] | EC50 [4, 14] [nM] | EC50 [5] [nM] | EC50 [2] [nM] | other results
CCCN[C@H]1CCc2nc(N)sc2C1 [Pramipexole, pramipexole] | about 1 hours | – | – | – | – | Locomotor effect gone, time after its appearance ([1]; pramipexole 0.3 mg/kg s.c., at the 270-minute time point): 2.5 h
CCCN1CCC[C@@H]2Cc3c(ccc(OC(=O)C(C)(C)C)c3OC(=O)C(C)(C)C)C[C@H]21 [(Ic)] | – | extremely low | – | – | – | 5-HT2B agonist effect at single concentration ([2]; @10 μM): −5%@10 μM
CCCN1CCC[C@@H]2Cc3c(ccc(O)c3O)C[C@H]21 [Compound (I), (4aR,10aR)-1-Propyl-1,2,3,4,4a,5,10,10a-octahydro-benzo[g]quinoline-6,7-diol] | – | – | 3.3 | 1.3 | 2900 | Oral bioavailability (in words) [6]: low oral bioavailability
CCCc1cc2c(s1)CN[C@@H]1CCc3cc(OC(C)=O)c(OC(C)=O)cc3[C@@H]21 [adrogolide] | – | – | – | – | – | Oral bioavailability [7]: ~4%
CCCN1CCC[C@@H]2Cc3c(ccc(O)c3O[C@@H]3O[C@H](C(=O)O)[C@@H](O)[C@H](O)[C@H]3O)C[C@H]21 [Compound (Id), (2S,3S,4S,5R,6S)-3,4,5-trihydroxy-6-(((4aR,10aR)-7-hydroxy-1-propyl-1,2,3,4,4a,5,10,10a-octahydrobenzo[g]quinolin-6-yl)oxy)tetrahydro-2H-pyran-2-carboxylic acid] | ~2 h | slower absorption rate avoiding rapid peak concentrations accompanied by a sustained exposure of compound (I) in plasma | 2700 | 1100 | – | End of locomotor effect, time post administration ([1]; apomorphine 3 mg/kg s.c.): lasting until the end of recording; Total distance travelled ([1]; versus vehicle, (Id) 10-300 μg/kg p.o., apomorphine 3 mg/kg s.c., pramipexole 0.3 mg/kg s.c.): significantly increased activity; Conversion to compound (I) [8]: time dependent conversion; Conversion to compound (I) [9]: time dependent conversion; Conversion to compound (I) [10]: time dependent conversion; Conversion to compound (I) [11]: time dependent conversion; In vivo conversion to compound (I) [12]: observed
CCCN1CCC[C@@H]2CC3=C(CCCC3=O)C[C@H]21 [Compound (Ia)] | – | early and high peak concentrations of compound (I) | > 1000 | > 1000 | > 6000 | 5-HT2B agonist effect at single concentration ([2]; @30 μM): 58%
CCCN1CCC[C@@H]2Cc3c(ccc4c3OCO4)C[C@H]21 [Compound (Ib)] | – | early and high peak concentrations of compound (I) | – | 46 | 3.8 | EC50 [4]: > 1000 nM; 5-HT2B receptor agonism (in words) [2]: agonist of the 5-HT2B receptor
CN1CCc2cccc3c2[C@H]1Cc1ccc(O)c(O)c1-3 [apomorphine] | immediate | – | – | – | – | End of locomotor effect, time post administration ([1]; apomorphine 3 mg/kg s.c.): 1.5 h
